We go through one molecule from patent US12702654B2, “Compositions and methods for treating homocystinuria and other conditions using polyamines” (THE REGENTS OF THE UNIVERSITY OF COLORADO, priority 2020, dated 2026).

In one experiment the test system is Cbs null mouse. To be noted: betaine treatment; cited from earlier work.
The subject of experiment [1] is HO HCU mice. Kind of experiment: Plasma metabolite levels (tHcy, methionine cycle amino acids, SAM, SAH) in HO HCU mice. The following applies: long-term betaine treatment, no methionine-restriction. The experiment is classed as in vivo, mouse.
The test system of experiment [2] is HO HCU mice. The description is as above. The experiment is classed as in vivo, mouse. The method, then: It is noted that WT mice (n=6) include untreated controls. HO HCU mice (N=8, 4 of each sex in each group) were either untreated or treated with about 3.0% (w/v) glycine w/v or about 3.0% (w/v) serine given in drinking water supplied ad libitum for one week. Plasma samples were taken and Hcy and cysteine levels were determined. *** denotes a P value <0.0001.
In accordance with these methods, HO HCU mice (N=8, 4 of each sex in each group) were treated with either about 3.0% glycine w/v or about 3.0% w/v serine given in drinking water supplied ad libitum for one week in the presence and absence of about 3.0% w/v betaine. Plasma samples were taken from the mice at various times and Hcy levels were determined.
Plasma Hcy levels were determined from HO HCU mice (n=8 per group) in the presence and absence of either about 5.0% w/v sodium formate alone or in combination with about 3.0% betaine given in drinking water given ad libitum.
In one exemplary method, mice were given zinc in drinking water. For this example, 8 HO HCU mice were provided drinking water supplemented with zinc (e.g. 0.05% w/v Zinc sulfate) given ad libitum for one week.
In another exemplary method, the transsulfuration pathway and methionine-folate cycle pathways, as show in the sematic illustrated in FIG. 18A, were assessed. In brief, three experimental groups (n=8 for each group) of male mice consisting of either untreated WT controls or HO HCU mice in the presence or absence of betaine treatment. Betaine was administered by dissolving the compound in drinking water at 30 g/l and was supplied ad libitum to the mice for one week. Treatment water was replenished twice per week.
A comparative reference data set was generated for these mice by examining plasma levels of tHcy, methionine, cysteine, serine, glycine, dimethylglycine, methylglycine (MG, SAM and SAH). In brief, determination of plasma levels of amino acids relevant to the methionine cycle were determined using methods similar to those described in Stabler et al., Blood. 81 (1993) 3404-3413, incorporated in its entirety herein. Determination of hepatic 5-methylTHF was performed by liquid chromatography-tandem mass spectrometry using methods similar to those described in Witham et al., PLoS One. 8 (2013) e77923, incorporated in its entirety herein. The global metabolomic analysis of methionine and folate cycle related metabolites was carried out by Metabolon, Inc. Briefly, sample preparation was performed utilizing the automated MicroLab STAR® system. Sample preparation was performed using a proprietary series of organic and aqueous extractions to remove the protein fraction while allowing maximum recovery of small molecules. The resulting extract was divided into two fractions: one for analysis by liquid chromatography and one for analysis by gas chromatography. Each sample was then frozen and dried under vacuum. The LC/mass spectrometer portion of the platform was based on a Waters ACQUITY UPLC and a Thermo-Finnigan LTQ mass spectrometer, which consisted of an electrospray ionization source and linear ion-trap mass analyzer. Samples were analyzed on a Thermo-Finnigan Trace DSQ fast-scanning single-quadrupole mass spectrometer using electron impact ionization. Identification of known chemical entities was based on comparison to library entries of authenticated standards. Tissue polyamines putrescine, spermidine and spermine and 5-methylthioadenosine (MTA) were determined by liquid chromatography-tandem mass spectrometry using methods similar to those described in Stevens et al., J Chromatogr A 1217 (2010) 3282-3288, incorporated in its entirety herein.

The mark [3] stands for this setting: HO HCU mice, betaine 30 g/l in drinking water, one week.
[4] abbreviates: HO model, betaine treatment, P<0.0001.

Turning to `C[N+](C)(C)CC(=O)O` [betaine, N,N,N-trimethylglycine], in the experiment with Cbs null mouse, the “Hcy in Cbs (−/−) mice” value is given as “without significantly lowering Hcy”; the “fertility of female Cbs (−/−) mice” value is recorded as “restored fertility”; the “severe liver injury, steatosis, and fibrosis in Cbs (−/−) mice” value is “not significantly improved”; the “survival of Cbs (−/−) mice” value was “improved survival”. In addition, the “ability of betaine treatment to lower homocysteine” value in the experiment on HO HCU mice [1] is on record as “diminished significantly over time”. Besides, in the experiment on HO HCU mice [2] (setting [3]), the “increase of plasma Met compared to untreated HCU mice” value is listed as 3 fold; the “plasma DMG” value was “strongly increased”; the “plasma MG” value is given as “strongly increased”; the “plasma SAH” value is “significantly decreased, but not normalized”. Further, in the experiment with HO HCU mice [2] (setting [3]), the “plasma SAM” value is given as “significantly decreased, but not normalized”; the plasma glycine entry was “did not change significantly”; the plasma serine entry is recorded as “did not change significantly”. For the same molecule, in the experiment with HO HCU mice [2] (HO HCU mice, betaine 30 g/l in drinking water, one week, P<0.0001), the “decrease in plasma tHcy” value is given as roughly 60%. Further, the “depletion of plasma total cysteine” value in the experiment with HO HCU mice [2] (HO HCU mice, betaine 30 g/l in drinking water, one week, remained lower than WT) is given as “significantly ameliorated”. In addition, in the experiment on HO HCU mice [2] (setting [4]), the “decrease in AdoHcy levels” value was “fivefold decrease”, the “plasma DMG” value is reported as “increase”, the “plasma MG” value is listed as “increase” and the plasma cysteine result is “increase”. Moreover, the plasma methionine result in the experiment with HO HCU mice [2] (setting [4]) was “increase”. In addition, the “decrease in plasma AdoMet” value in the experiment with HO HCU mice [2] (HO model, betaine treatment, P=0.0039) worked out at 40%. In addition, the “reduction of Hcy levels by standard treatment alone” value in the experiment with HO HCU mice [2] (betaine alone, as previously observed) was 15-25%.
